The EC50 is the concentration needed to bring the measured effect to its halfway point.

For this assay, the target named is T1, human brain-derived dopamine D4 receptor (Homo sapiens, UniProt P21917).
T1 construct: expressed in transfected cells; host or cells: CHO (CHO-K1) or HEK293 cells
T1 sequence (P21917 1-419): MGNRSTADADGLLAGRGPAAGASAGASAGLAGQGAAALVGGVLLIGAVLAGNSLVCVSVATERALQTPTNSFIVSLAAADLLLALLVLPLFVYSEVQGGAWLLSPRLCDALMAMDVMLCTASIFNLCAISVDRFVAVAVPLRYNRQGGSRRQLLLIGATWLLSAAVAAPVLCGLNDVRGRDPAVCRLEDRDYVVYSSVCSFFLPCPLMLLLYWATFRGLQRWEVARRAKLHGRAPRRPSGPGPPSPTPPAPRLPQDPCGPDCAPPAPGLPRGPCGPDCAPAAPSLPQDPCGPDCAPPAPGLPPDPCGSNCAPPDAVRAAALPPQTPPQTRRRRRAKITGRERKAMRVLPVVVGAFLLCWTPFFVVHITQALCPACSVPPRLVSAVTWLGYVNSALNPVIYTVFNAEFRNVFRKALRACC
The assay is described as follows: Agonistic activity in G protein dependent pathway of dopamine D4 receptor (aequorin intracellular calcium luminescence, FDSS). The format is cell-based. To be noted: for EC50: concentration required to achieve a 50% response of Emax, CHO-K1 or HEK293 cells transfected with D4 receptor; for Emax: read-out: Maximal activity on D4 receptor (%). From the text:
The G protein dependent pathway is a pathway for transmitting signals in cells via a second messenger by stimulating a G protein through the binding of guanosine triphosphate (GTP) to the G protein. When GPCRs are activated by the binding of a ligand, a G protein binds to the GPCRs, and thereby GTP binds to a Gα subunit that is one of G protein subunits and a Gγβ subunit is dissociated. The activated Gα subunit regulates intracellular cAMP levels by the activation or inhibition of an adenylate cyclase, and regulates intracellular calcium levels by the activation of phospholipase C to transmit signals in cells.
The agonistic activities of the present compounds in the G protein dependent pathway were evaluated on the basis of intracellular calcium levels as follows. CHO-K1 or HEK293 cell lines transfected with D4 receptor genes were seeded in a 384-well plate, and incubated in a CO2 incubator at 37° C. for 24 hours, and then a solution of the present compound in DMSO was added into cells preloaded with coelenterazine to measure the change in luminescent signals with a FDSS (Hamamatsu Photonics K.K.). […] The agonistic activity of the present compound was calculated according to the measured luminescent signals, as the maximal activity (Emax) of the present compound. EC50 value was calculated as the concentration of the present compound required to achieve a 50% response of Emax.

On to `Cc1cccnc1-c1cc2n(n1)CCN(Cc1cccc(F)c1)C2` [Example 61], for which the EC50 is 34 nM and the Emax was found to be 57%.

In the case of `Cc1cccnc1-c1cc2n(n1)CCN(Cc1cccc(C#N)c1)C2` [Example 62], the EC50 is 25 nM and the Emax came to 89%.

`Cc1cccnc1-c1cc2n(n1)CCN(Cc1cccc(OC(F)(F)F)c1)C2` [Example 63]: the EC50 was 102 nM and the Emax was found to be 40%.

For the molecule `Cc1cccnc1-c1cc2n(n1)CCN(Cc1cc(OC(F)(F)F)ccc1F)C2` [Example 64], the EC50 is 108 nM and the Emax turned out to be 42%.

As for `Cc1cccnc1-c1cc2n(n1)CCN(Cc1ccc([N+](=O)[O-])cc1)C2` [Example 65], the concentration for a half-maximal effect (EC50) came to 20 nM and the Emax was 69%.

For the molecule `Cc1cccnc1-c1cc2n(n1)CCN(Cc1ccc(OC(F)(F)F)cc1F)C2` [Example 66], the EC50 is 140 nM and the Emax was 52%.

As for `Cc1ccc(CN2CCn3nc(-c4ncccc4C)cc3C2)cn1` [Example 67], the EC50 was found to be 27 nM and the Emax stood at 64%.

As for `Fc1cccnc1-c1cc2n(n1)CCN(Cc1ccc(C(F)(F)F)cc1)C2` [Example 68], the EC50 came to 69 nM and the Emax came to 64%.

Regarding `N#Cc1ccc(CN2CCn3nc(-c4ncccc4F)cc3C2)cc1` [Example 69], the EC50 was 59 nM and the Emax was found to be 50%.

For the molecule `Cc1cccnc1-c1cc2n(n1)CCN(Cc1ccc3c(c1)N(C)C(=O)CC3)C2` [Example 70], the 50% effective concentration (EC50) came to 85 nM and the Emax is 45%.

Regarding `Cc1cccnc1-c1nn2c(c1C)CN(Cc1ccc(C(F)(F)F)cc1)CC2` [Example 71], the EC50 was 88 nM and the Emax came to 53%.

For the molecule `Cc1ccc(CN2CCn3nc(-c4ncccc4C)c(C)c3C2)cc1` [Example 72], the concentration giving a half-maximal response (EC50) is 33 nM and the Emax amounted to 65%.

In the case of `Cc1cccnc1-c1nn2c(c1C)CN(Cc1ccccc1)CC2` [Example 73], the EC50 turned out to be 30 nM and the Emax was 58%.

Take `Cc1c(-c2ccccn2)nn2c1CN(Cc1ccc(C(F)(F)F)cc1)CC2` [Example 74]: the EC50 turned out to be 73 nM and the Emax was 65%.

As for `Cc1c(-c2ccccn2)nn2c1CN(Cc1ccc(C#N)cc1)CC2` [Example 75], the EC50 came out at 37 nM and the Emax was found to be 61%.

Turning to `Cc1ccc(CN2CCn3nc(-c4ccccn4)c(C)c3C2)cc1` [Example 76], the EC50 was determined as 44 nM and the Emax came to 59%.

For `Cc1cccnc1-c1cc2n(n1)CCN(Cc1ccc3c(c1)N(C)C(=O)CS3)C2` [Example 77], the EC50 stood at 58 nM and the Emax came out at 62%.

For the molecule `Fc1c(-c2ccccn2)nn2c1CN(Cc1ccccc1)CC2` [Example 78], the EC50 is 11 nM and the Emax was found to be 51%.

Turning to `Fc1cccnc1-c1cc2n(n1)CCN(Cc1ccccc1)C2` [Example 79], the EC50 turned out to be 3.4 nM and the Emax worked out at 83%.

`Cc1cccnc1-c1cc2n(n1)CCN(Cc1ccc(C(F)F)cc1)C2` [Example 80]: the EC50 worked out at 18 nM and the Emax worked out at 70%.

Regarding `Cc1c(-c2ccccn2)nn2c1CN(Cc1ccccc1)CC2` [Example 81], the half-maximal effective concentration (EC50) was determined as 0.7 nM and the Emax was found to be 89%.

`Cc1ccc(CN2CCn3nc(-c4ncccc4F)c(C)c3C2)cc1` [Example 82]: the EC50 is 46 nM and the Emax stood at 91%.

With `Cc1c(-c2ncccc2F)nn2c1CN(Cc1ccc(C(F)(F)F)cc1)CC2` [Example 83], the EC50 is 84 nM and the Emax turned out to be 72%.

Consider `Cc1cccnc1-c1cc2n(n1)CCN(Cc1cnc(C(F)(F)F)nc1N)C2` [Example 84, 5-{[2-(3-Methylpyridin-2-yl)-6,7-dihydropyrazolo[1,5-a]pyrazin-5(4H)-yl]methyl}-2-(trifluoromethyl)pyrimidine-4-amine], for which the EC50 is 118 nM and the Emax was 68%.

For the molecule `Cc1cccnc1-c1cc2n(n1)CCN(Cc1nc(C)n3ccccc13)C2` [Example 85], the EC50 amounted to 78 nM and the Emax was 78%.

Turning to `Cc1cccnc1-c1cc2n(n1)CCN(Cc1ccc(C(F)(F)F)c(C#N)c1)C2` [Example 86], the EC50 amounted to 52 nM and the Emax came out at 85%.

Turning to `Cc1cccnc1-c1cc2n(n1)CCN(Cc1cn3c(n1)CCCC3)C2` [Example 87], the EC50 was found to be 62 nM and the Emax was determined as 47%.

For `Cc1cccnc1-c1cc2n(n1)CCN(Cc1cnn3c1CCCC3)C2` [Example 88], the EC50 is 93 nM and the Emax amounted to 54%.

As for `Cc1cccnc1-c1cc2n(n1)CCN(Cc1cnn3ccccc13)C2` [Example 89], the concentration for a half-maximal effect (EC50) was 47 nM and the Emax was 39%.

In the case of `Cc1cccnc1-c1cc2n(n1)CCN(Cc1cc3ccccn3n1)C2` [Example 90], the EC50 was 29 nM and the Emax is 55%.

On to `Cc1cccnc1-c1cc2n(n1)CCN(Cc1cc3n(n1)CCCC3)C2` [Example 91], for which the EC50 turned out to be 49 nM and the Emax came to 44%.

Take `Cc1c(-c2ccccn2)nn2c1CN(Cc1ccc(C(F)(F)F)nc1N)CC2` [Example 92]: the EC50 is 60 nM and the Emax worked out at 64%.

Regarding `Cc1ccnc(CN2CCn3nc(-c4ccccn4)c(C)c3C2)c1` [Example 93], the EC50 was 23 nM and the Emax is 56%.

For the molecule `Cc1c(-c2ccccn2)nn2c1CN(Cc1cn3c(n1)CCCC3)CC2` [Example 94], the EC50 worked out at 42 nM and the Emax stood at 49%.

Turning to `Cc1c(-c2ccccn2)nn2c1CN(Cc1ccc(C(F)(F)F)nc1)CC2` [Example 95], the EC50 came to 51 nM and the Emax stood at 56%.

Take `Cc1cccnc1-c1cc2n(n1)CCN(Cc1ncn3ccccc13)C2` [Example 96]: the EC50 was found to be 37 nM and the Emax is 57%.

As for `Cc1cccnc1-c1cc2n(n1)CCN(Cc1ccc(Cl)cn1)C2` [Example 97], the EC50 is 49 nM and the Emax was 85%.

On to `Cc1ccc(CN2CCn3nc(-c4ccccn4)cc3C2)nc1N` [Example 98], for which the 50% effective concentration (EC50) stood at 20 nM and the Emax came out at 54%.

For the molecule `Cc1ccc(CN2CCn3nc(-c4ncccc4C)cc3C2)cc1C#N` [Example 99], the EC50 stood at 1.1 nM and the Emax worked out at 77%.

On to `Cc1cccnc1-c1cc2n(n1)CCN(Cc1n[nH]c3cc(F)ccc13)C2` [Example 100], for which the 50% effective concentration (EC50) worked out at 20 nM and the Emax was determined as 79%.

For the molecule `Cc1ccc2c(CN3CCn4nc(-c5ncccc5C)cc4C3)n[nH]c2c1` [Example 101], the EC50 worked out at 78 nM and the Emax was 67%.

Turning to `Fc1cccc2[nH]nc(CN3CCn4nc(-c5ccccn5)cc4C3)c12` [Example 102], the half-maximal effective concentration (EC50) was found to be 116 nM and the Emax was 48%.

In the case of `Cc1cnc(N)c(CN2CCn3nc(-c4ncccc4C)cc3C2)c1` [Example 103], the EC50 turned out to be 127 nM and the Emax amounted to 53%.

Take `Cc1cccnc1-c1cc2n(n1)CCN(Cc1n[nH]c3c(C)cccc13)C2` [Example 104]: the EC50 is 18 nM and the Emax came out at 67%.

On to `Cc1cccnc1-c1cc2n(n1)CCN(Cc1ccc(C(F)(F)F)nc1N)C2` [Example 105], for which the half-maximal effective concentration (EC50) worked out at 69 nM and the Emax came out at 79%.

Regarding `Cc1ccc(CN2CCn3nc(-c4ncccc4C)c(Cl)c3C2)nc1` [Example 106, 3-Chloro-2-(3-methylpyridin-2-yl)-5-[(5-methylpyridin-2-yl)methyl]-4,5,6,7-tetrahydropyrazolo[1,5-a]pyrazine], the EC50 amounted to 66 nM and the Emax turned out to be 94%.

For the molecule `Cc1ccc(CN2CCn3nc(-c4ncccc4C)cc3C2)nc1` [Example 107], the EC50 was found to be 13 nM and the Emax came out at 61%.

In the case of `Cc1c(-c2ccccn2)nn2c1CN(Cc1ccc(C(F)(F)F)cn1)CC2` [Example 108], the EC50 was 1 nM and the Emax stood at 66%.

In the case of `Cc1ccc(CN2CCn3nc(-c4ncccc4F)cc3C2)nc1` [Example 109], the EC50 was 36 nM and the Emax came to 68%.

For the molecule `Cc1ccc(CN2CCn3nc(-c4ccccn4)c(C)c3C2)nc1` [Example 110], the EC50 was 18 nM and the Emax was found to be 99%.

In the case of `Cc1ccncc1CN1CCn2nc(-c3ncccc3C)cc2C1` [Example 111], the EC50 is 159 nM and the Emax is 22%.

For the origin of these results see patent publication US20160318933A1, “FUSED PYRAZOLE DERIVATIVE” (SUMITOMO DAINIPPON PHARMA CO., LTD., priority 2013, published 2016).
